Laboratory results published in patent publication US9296745B2, “Diacylglycerol acyltransferase 2 inhibitors” (Pfizer Inc., priority 2012, dated 2016).

Molecular target: Human DGAT2 (hDGAT2) (Homo sapiens (Human), UniProt Q96PD7)
Assay: In vitro DGAT2 assay, IC50 determination with hDGAT2 membrane fraction
Assay type: biochemical
Conditions: geometric mean; background for complete inhibition of DGAT2 obtained with 50 μM (1R,2R)-2-({3′-Fluoro-4′-[(6-fluoro-1,3-benzothiazol-2-yl)amino]-1,1′-biphenyl-4-yl}carbonyl)cyclopentanecarboxylic acid; read-out: DGAT2 IC50
Method in brief: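 CHAPS-solubilized membrane fraction of FLAG-tagged hDGAT2 from baculovirus-infected SF9 cells (0.01 mg/mL) in 100 mM Hepes-NaOH pH 7.4, 20 mM MgCl2, 200 nM methyl arachidonyl fluorophosphonate; compounds pre-incubated 20 min with 0.04% BSA. Reaction 40 min at room temperature, stopped with H3PO4. [^14C]tridecanoylglycerol in organic phase counted; 11-point geometric mean IC50.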

Human DGAT2 (hDGAT2), sequence (Q96PD7 whole entry): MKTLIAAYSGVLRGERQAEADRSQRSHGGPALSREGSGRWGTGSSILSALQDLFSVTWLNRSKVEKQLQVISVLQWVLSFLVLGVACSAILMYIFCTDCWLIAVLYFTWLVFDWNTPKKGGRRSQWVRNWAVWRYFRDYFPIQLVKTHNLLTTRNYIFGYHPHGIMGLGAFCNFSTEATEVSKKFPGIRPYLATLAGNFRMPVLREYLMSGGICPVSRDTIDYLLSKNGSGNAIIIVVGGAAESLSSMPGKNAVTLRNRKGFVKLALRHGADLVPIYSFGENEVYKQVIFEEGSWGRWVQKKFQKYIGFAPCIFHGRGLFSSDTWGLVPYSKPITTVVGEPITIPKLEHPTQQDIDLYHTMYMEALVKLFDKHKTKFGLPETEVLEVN

Row | IC50 | Structure (SMILES)
1 | 1.39 µM | c1cc(-c2nc3ccc(N4CCC[C@H](c5nnc6n5CCC6)C4)nc3[nH]2)nc(C2CC2)n1 [Example 168, (S)-2-(2-cyclopropylpyrimidin-4-yl)-5-(3-(6,7-dihydro-5H-pyrrolo[2,1-c][1,2,4]triazol-3-yl)piperidin-1-yl)-3H-imidazo[4,5-b]pyridine]
2 | 0.0109 µM | O=C([C@@H]1CCCN(c2ccc3nc(-c4cccc(C(F)F)n4)[nH]c3n2)C1)N1CCCC1 [Example 122, (R)-(1-(2-(6-(Difluoromethyl)pyridin-2-yl)-3H-imidazo[4,5-b]pyridin-5-yl)piperidin-3-yl)(pyrrolidin-1-yl)methanone]
3 | 0.845 µM | O=C(Nc1ccc(C(F)(F)F)nc1)c1nc2ccc(N3CCC[C@@H](C(=O)N4CCCC4)C3)nc2[nH]1 [Example 211, (R)-5-(3-(Pyrrolidine-1-carbonyl)piperidin-1-yl)-N-(6-(trifluoromethyl)pyridin-3-yl)-3H-imidazo[4,5-b]pyridine-2-carboxamide]
4 | 0.00603 µM | O=C([C@@H]1CCCN(c2ccc3nc(-c4cccc(C5CC5)n4)[nH]c3n2)C1)N1CCCC1 [Example 182, (R)-(1-(2-(6-Cyclopropylpyridin-2-yl)-3H-imidazo[4,5-b]pyridin-5-yl)piperidin-3-yl)(pyrrolidin-1-yl)methanone]
5 | 0.0373 µM | CCOC(=O)c1cc(OC)nc(-c2nc3ccc(N4CCC[C@@H](C(=O)N5CCCC5)C4)nc3[nH]2)c1 [Example 96, (R)-Ethyl 2-methoxy-6-(5-(3-(pyrrolidine-1-carbonyl)piperidin-1-yl)-3H-imidazo[4,5-b]pyridin-2-yl)isonicotinate]
6 | 1.17 µM | O=C([C@@H]1CCCN(c2ccc3nc(-c4ccnc(C5CC5)n4)[nH]c3n2)C1)N1C[C@H]2C[C@@H]1CO2 [Example 174, (1R,4R)-2-Oxa-5-azabicyclo[2.2.1]heptan-5-yl((R)-1-(2-(2-cyclopropylpyrimidin-4-yl)-3H-imidazo[4,5-b]pyridin-5-yl)piperidin-3-yl)methanone]
7 | 0.546 µM | Cc1ccn(C2(c3nc4ccc(N5CCC[C@@H](C(=O)N6CCCC6)C5)nc4[nH]3)CC2)n1 [Example 89, (R)-(1-(2-(1-(3-Methyl-1H-pyrazol-1-yl)cyclopropyl)-3H-imidazo[4,5-b]pyridin-5-yl)piperidin-3-yl)(pyrrolidin-1-yl)methanone]
8 | 0.697 µM | O=C([C@@H]1CCCN(c2ccc3nc(-c4cccc(C5(O)COC5)n4)[nH]c3n2)C1)N1CCCC1 [Example 111, (R)-(1-(2-(6-(3-Hydroxyoxetan-3-yl)pyridin-2-yl)-3H-imidazo[4,5-b]pyridin-5-yl)piperidin-3-yl)(pyrrolidin-1-yl)methanone]
9 | 0.188 µM | O=C([C@@H]1CCCN(c2ccc3nc(C4(n5cc(Cl)cn5)CC4)[nH]c3n2)C1)N1CCC1 [Example 205, (R)-Azetidin-1-yl(1-(2-(1-(4-chloro-1H-pyrazol-1-yl)cyclopropyl)-3H-imidazo[4,5-b]pyridin-5-yl)piperidin-3-yl)methanone]
10 | 4.24 µM | c1cc(-c2nc3ccc(N4CCC[C@H](c5ncc6n5CCC6)C4)nc3[nH]2)nc(C2CC2)n1 [Example 135, (S)-2-(2-cyclopropylpyrimidin-4-yl)-5-(3-(6,7-dihydro-5H-pyrrolo[1,2-c]imidazol-3-yl)piperidin-1-yl)-3H-imidazo[4,5-b]pyridine]
11 | 0.0017 µM | O=C([C@@H]1CCCN(c2ccc3nc(-c4cccc(OC(F)(F)F)c4)[nH]c3n2)C1)N1CCCC1 [Example 1, (R)-Pyrrolidin-1-yl(1-(2-(3-(trifluoromethoxy)phenyl)-3H-imidazo[4,5-b]pyridin-5-yl)piperidin-3-yl)methanone]
12 | 0.00781 µM | O=C([C@@H]1CCCN(c2ccc3nc(-c4cccc(N5CCCC5)n4)[nH]c3n2)C1)N1CCCC1 [Example 38, (R)-Pyrrolidin-1-yl(1-(2-(6-(pyrrolidin-1-yl)pyridin-2-yl)-3H-imidazo[4,5-b]pyridin-5-yl)piperidin-3-yl)methanone]
13 | 0.0415 µM | COC(=O)Cc1cccc(-c2nc3ccc(N4CCC[C@@H](C(=O)N5CCCC5)C4)nc3[nH]2)c1 [Example 110, (R)-Methyl 2-(3-(5-(3-(pyrrolidine-1-carbonyl)piperidin-1-yl)-3H-imidazo[4,5-b]pyridin-2-yl)phenyl)acetate]
14 | 0.432 µM | CC(C)c1cccc(-c2nc3ccc(N4CCC[C@@H](C(=O)N5CCCC5)C4)nc3[nH]2)c1O [Example 23, (R)-(1-(2-(2-Hydroxy-3-isopropylphenyl)-3H-imidazo[4,5-b]pyridin-5-yl)piperidin-3-yl)(pyrrolidin-1-yl)methanone]
15 | 0.161 µM | O=C([C@H]1CN(c2ncc3nc(C4(n5cc(Cl)cn5)CC4)[nH]c3n2)CCO1)N1CCCC1 [Example 213, (R)-(4-(8-(1-(4-Chloro-1H-pyrazol-1-yl)cyclopropyl)-9H-purin-2-yl)morpholin-2-yl)(pyrrolidin-1-yl)methanone]
16 | 4.37 µM | O=C([C@@H]1CCCN(c2ccc3nc(C4CC4)[nH]c3n2)C1)N1CCCC1 [Example 29, (R)-(1-(2-Cyclopropyl-3H-imidazo[4,5-b]pyridin-5-yl)piperidin-3-yl)(pyrrolidin-1-yl)methanone]
17 | 0.315 µM | Cc1ccnn1C1(c2nc3ccc(N4CCC[C@@H](C(=O)N5CCCC5)C4)nc3[nH]2)CC1 [Example 90, (R)-(1-(2-(1-(5-methyl-1H-pyrazol-1-yl)cyclopropyl)-3H-imidazo[4,5-b]pyridin-5-yl)piperidin-3-yl)(pyrrolidin-1-yl)methanone]
18 | 0.0969 µM | Cc1cccc(C2(c3nc4ccc(N5CCC[C@@H](C(=O)N6CCCC6)C5)nc4[nH]3)CC2)c1 [Example 97, (R)-Pyrrolidin-1-yl(1-(2-(1-m-tolylcyclopropyl)-3H-imidazo[4,5-b]pyridin-5-yl)piperidin-3-yl)methanone]
19 | 0.0211 µM | CNS(=O)(=O)c1cccc(-c2nc3ccc(N4CCC[C@@H](C(=O)N5CCCC5)C4)nc3[nH]2)c1 [Example 8, (R)-N-Methyl-3-(5-(3-(pyrrolidine-1-carbonyl)piperidin-1-yl)-3H-imidazo[4,5-b]pyridin-2-yl)benzenesulfonamide]
20 | 0.221 µM | Cn1cc(Cl)c(-c2nc3ccc(N4CCC[C@@H](C(=O)N5CCCC5)C4)nc3[nH]2)n1 [Example 20, (R)-(1-(2-(4-Chloro-1-methyl-1H-pyrazol-3-yl)-3H-imidazo[4,5-b]pyridin-5-yl)piperidin-3-yl)(pyrrolidin-1-yl)methanone]
21 | 0.434 µM | C[C@@H]1CCN(c2ccc3nc(-c4cccc(OC(F)F)c4)[nH]c3n2)C[C@@H]1C(=O)N(C)C [Example 180, (3R,4R)-1-(2-(3-(Difluoromethoxy)phenyl)-3H-imidazo[4,5-b]pyridin-5-yl)-N,N,4-trimethylpiperidine-3-carboxamide]
22 | 0.0143 µM | O=C([C@@H]1CCCN(c2ccc3nc(-c4cccc(OC(F)F)n4)[nH]c3n2)C1)N1CCCC1 [Example 121, (R)-(1-(2-(6-(Difluoromethoxy)pyridin-2-yl)-3H-imidazo[4,5-b]pyridin-5-yl)piperidin-3-yl)(pyrrolidin-1-yl)methanone]
23 | 0.235 µM | CS(=O)(=O)c1cccc(-c2nc3ccc(N4CCC[C@@H](C(=O)N5CCCC5)C4)nc3[nH]2)c1 [Example 127, (R)-(1-(2-(3-(Methylsulfonyl)phenyl)-3H-imidazo[4,5-b]pyridin-5-yl)piperidin-3-yl)(pyrrolidin-1-yl)methanone]
24 | 0.00568 µM | O=C([C@@H]1CCCN(c2ccc3nc(C4(c5ccc(C(F)(F)F)cc5)CC4)[nH]c3n2)C1)N1CCCC1 [Example 106, (R)-Pyrrolidin-1-yl(1-(2-(1-(4-(trifluoromethyl)phenyl)cyclopropyl)-3H-imidazo[4,5-b]pyridin-5-yl)piperidin-3-yl)methanone]
25 | 0.242 µM | COc1ccccc1C1(c2nc3ccc(N4CCC[C@@H](C(=O)N5CCCC5)C4)nc3[nH]2)CC1 [Example 92, (R)-(1-(2-(1-(2-Methoxyphenyl)cyclopropyl)-3H-imidazo[4,5-b]pyridin-5-yl)piperidin-3-yl)(pyrrolidin-1-yl)methanone]
26 | 0.054 µM | COC(=O)c1cccc(-c2nc3ccc(N4CCC[C@@H](C(=O)N5CCCC5)C4)nc3[nH]2)c1 [Example 125, (R)-Methyl 3-(5-(3-(pyrrolidine-1-carbonyl)piperidin-1-yl)-3H-imidazo[4,5-b]pyridin-2-yl)benzoate]
27 | 0.892 µM | CN(C)C(=O)[C@@H]1CCCN(c2ccc3nc(-c4cccc(OC(F)F)c4)[nH]c3n2)C1 [Example 60, (R)-1-(2-(3-(Difluoromethoxy)phenyl)-3H-imidazo[4,5-b]pyridin-5-yl)-N,N-dimethylpiperidine-3-carboxamide]
28 | 1.05 µM | O=C([C@@H]1CCCN(c2ccc3nc(-c4ccnc(C5CC5)n4)[nH]c3n2)C1)N1CCC[C@@H]1CO [Example 66, ((R)-1-(2-(2-Cyclopropylpyrimidin-4-yl)-3H-imidazo[4,5-b]pyridin-5-yl)piperidin-3-yl)((R)-2-(hydroxymethyl)pyrrolidin-1-yl)methanone]
29 | 0.0115 µM | O=C([C@@H]1CCCN(c2ccc3nc(-c4cccc(-c5cnco5)c4)[nH]c3n2)C1)N1CCCC1 [Example 6, (R)-(1-(2-(3-(Oxazol-5-yl)phenyl)-3H-imidazo[4,5-b]pyridin-5-yl)piperidin-3-yl)(pyrrolidin-1-yl)methanone]

Same assay, conditions: read-out: DGAT2 IC50

Row | IC50 | Structure (SMILES)
30 | 0.0405 µM | O=C([C@@H]1CCCN(c2ccc3nc(-c4cccc(Cl)c4)[nH]c3n2)C1)N1CCOCC1 [Example 154, (R)-(1-(2-(3-Chlorophenyl)-3H-imidazo[4,5-b]pyridin-5-yl)piperidin-3-yl)(morpholino)methanone]
31 | 37.4 µM | C[C@H]1CCN(c2ncc3nc(C4(n5cccn5)CC4)[nH]c3n2)C[C@H]1C(=O)N1CCCC1 [Example 208, ((3S,4S)-1-(8-(1-(1H-pyrazol-1-yl)cyclopropyl)-9H-purin-2-yl)-4-methylpiperidin-3-yl)(pyrrolidin-1-yl)methanone]
